Data published in patent publication EP0216028A2, “Use of anthranilic-acid derivatives as anthelmintic medicaments” (HOECHST AKTIENGESELLSCHAFT, priority 1985, dated 1987).
Like-named read-outs stand apart in the source and are kept apart here.

Legend:
[1] = system: Leberegel (Fasciola hepatica); assay: Chemotherapeutic test in sheep infected with liver fluke (egg count reduction / worm burden); type: in vivo; settings: Wirtstier: Schaf, p.o.; for minimal effective dose: Fasciola hepatica, po, read-out: Dosis (>90% Reduktion der Wurmbürde); for Chemotherapeut. Index: quotient of Dosis tolerata maxima and Dosis curativa minima
Description: (§1) Zur Feststellung der anthelminthischen Wirkung der Verbindungen der Formel I wurden chemotherapeutische Untersuchungen an ca. 25-30 kg schweren Schaflämmern ausgeführt, die entweder mit Metazerkarien von Fasciola hepatica oder mit Larven von Magen-Darm-Strongyliden, vornehmlich Haemonchus contortus und Trichostongylus colubriformis, oral infiziert worden waren. Nach Ablauf der Präpatenzperiode (Zeit zwischen Infektion und Geschlechtsreife der Parasiten mit beginnender Ausscheidung von Eiern oder Larven) wurde der Parasitenbefall durch Kotuntersuchungen gesichert. […] Unmittelbar danach wurde die Behandlung der Schafe (im allgemeinen 3 - 4 Tiere pro Wirkstoff, mindestens aber 2) vorgenommen. Den Tieren wurde oral oder parenteral eine Suspension von unterschiedlicher Wirkstoffmenge in jeweils 10 ml einer 1%igen Carboxymethylcellulose-Suspension appliziert. Jeweils am 7., 14. und 28. Tag nach der Behandlung wurde wiederum nach den vorstehend angegebenen Verfahren die Eizahl pro Gramm Kot ermittelt und ihre prozentuale Abnahme im Vergleich zum Ausgangswert vor der Behandlung errechnet. Mit einigen Verbindungen wurden außerdem beim Fasciola-Befall noch eine zusätzliche Prüftechnik angewandt: Nach Abschluß der Präpatenzperiode wurde bei Fasciola-positiven Schafen ein künstlicher Gallengang geschaffen, der am Ausgang der Gallenblase ein Sieb enthielt, so daß die nach der Behandlung abgetöteten Leberegel in der Gallenblase aufgefangen werden konnten. Vier bis sieben Tage nach der Behandlung wurden die so operierten und dann behandelten Schafe getötet, die abgetöteten Leberegel in der Gallenblase sowie noch eventuell in der Leber vorhandene lebende Leberegel gezählt und von der gesamten Wurmbürde der Prozentsatz der abgetöteten Parasiten berechnet.
(§2) Der chemotherapeutische Index gibt den Quotienten aus Do- sis tolerata maxima und Dosis curativa minima an.

[2] = system: Magen-Darm-Würmer(Ostertagia, Haemonchur, Trichostrongylus, Cooperia, jeweils verschiedene Spezies); assay: Chemotherapeutic test in sheep infected with gastrointestinal worms (egg count reduction / worm burden); type: in vivo; settings: Tabelle 2, Wirtstier: Schaf; for Chemotherapeut. Index: quotient of Dosis tolerata maxima and Dosis curativa minima; for minimal effective dose: Trichostrongylus, read-out: Dosis (>90% Reduktion der Wurmbürde)
Description: as §1, §2

[3] = Tabelle 3 (comparison of isomers)
[4] = Tabelle 1, minimum curative dose

Compound | minimal effective dose [1, 3] [mg/kg] | Chemotherapeut. Index [1, 3] | minimal effective dose [1, 4] [mg/kg] | Chemotherapeut. Index ([1]; Tabelle 1) | also measured
O=C(Nc1ccc(Cl)cc1)c1ccc(Cl)cc1NS(=O)(=O)c1ccc(Cl)cc1 [V1, 4-Chlor-2-[(4-chlor-phenylsulfonyl)-amino]-benzoesäure-(4-chloranilid), reference compound] | 30 | 2 |  |  | 
O=C(Nc1ccc(Cl)cc1)c1ccc(NS(=O)(=O)c2ccc(Cl)cc2)cc1Cl [V2, reference compound] | 20 | 3 |  |  | 
O=C(Nc1ccc(Cl)cc1)c1ccc(NS(=O)(=O)c2ccc(Cl)cc2)c(Cl)c1 [V3, reference compound] | 30 | 2 |  |  | 
O=C(Nc1ccc(Cl)cc1)c1ccc(Cl)c(NS(=O)(=O)c2ccc(Cl)cc2)c1 [V4, 4-Chlor-3-[(4-Chlorphenylsulfonyl)-amino]-benzoesäure-(4-chlor-anilid), reference compound] | 15 | 4 |  |  | 
O=C(Nc1ccc(Cl)cc1)c1cc(NS(=O)(=O)c2ccc(Cl)cc2)ccc1Cl [V5, reference compound] | 30 | 2 |  |  | 
O=C(Nc1ccc(Cl)c(Cl)c1)c1ccc(Cl)cc1NS(=O)(=O)c1ccc(Cl)cc1 [V6, 4-Chlor-2-[(4-chlor-phenylsulfonyl)-amino]-benzoesäure-(3,4-dichlor-anilid), reference compound] | 30 | 2 |  |  | 
O=C(Nc1ccc(F)cc1)c1cc(NS(=O)(=O)c2ccc(Cl)cc2)ccc1Cl [V7, 2-Chlor-5-[(4-chlor-phenylsulfonyl)-amino]-benzoesäure-(4-fluor-anilid), reference compound] | 30 | 2 |  |  | 
O=C(Nc1ccc(Cl)cc1)c1ccc(NS(=O)(=O)c2ccc(Cl)cc2)cc1Br [V8, reference compound] | 30 | 2 |  |  | 
O=C(Nc1ccc(Cl)cc1)c1ccc(Br)cc1NS(=O)(=O)c1ccc(Cl)cc1 [V9, 4-Brom-2-[(4-chlor-phenylsulfonyl)-amino]-benzoesäure-(4-chlor-anilid), reference compound] | 20 | 3 |  |  | 
O=C(Nc1ccc(Cl)c(Cl)c1)c1ccc(NS(=O)(=O)c2ccc(Cl)cc2)cc1Cl [V10, reference compound] | 10 | 5 |  |  | 
O=C(Nc1ccc(Cl)cc1)c1cc(Cl)ccc1NS(=O)(=O)c1ccc(Cl)cc1 [Verbindung 1] | 1.5 | über 25 | 1.5 | über 25 | 
O=C(Nc1ccc(Cl)cc1Cl)c1cc(Cl)ccc1NS(=O)(=O)c1ccc(Cl)cc1 [Verbindung 2, 5-Chlor-2-[(4-chlor-phenylsulfonyl)-amino]-benzoesäure-(2,4-dichlor-anilid)] |  |  | 7.5 | 8 | 
O=C(Nc1ccc(Cl)c(Cl)c1)c1cc(Cl)ccc1NS(=O)(=O)c1ccc(Cl)cc1 [Verbindung 3, 5-Chlor-2-t(4-chlor-phenylsulfonyl)-aminoJ-benzoesäure-(3,4-dichloranilid)] | 5 | 10 | 5 | 10 | 
O=C(Nc1ccc(F)cc1)c1cc(Cl)ccc1NS(=O)(=O)c1ccc(Cl)cc1 [Verbindung 4] |  | 20 | 2.5 | 20 | Dosis (>90% Reduktion der Wurmbürde) [1, 3]: 2,5 mg/kg Körpergewicht
O=C(Nc1ccc(Br)cc1)c1cc(Cl)ccc1NS(=O)(=O)c1ccc(Cl)cc1 [Verbindung 5, 5-Chlor[(4-chlor-phenylsulfonyl)-amino]-benzoesäure-(4-brom-anilid)] |  |  | 5 | 10 | 
CN(C(=O)c1cc(Cl)ccc1NS(=O)(=O)c1ccc(Cl)cc1)c1ccc(Cl)cc1 [Verbindung 6] |  |  |  |  | Chemotherapeut. Index ([2]; p.o.): 5; minimal effective dose ([2]; po, p.o.): 10 mg/kg
O=C(Nc1ccc(Cl)cc1)c1cc(Br)ccc1NS(=O)(=O)c1ccc(Cl)cc1 [Verbindung 9, 5-Brom-2-[(4-chlor-phenylsulfonyl)-amino]-benzoesäure-(4-chlor-anilid)] | 2.5 | 20 | 5 | 10 | 

Compound | minimal effective dose [1, 3] [mg/kg] | Chemotherapeut. Index [1, 3] | minimal effective dose [1, 4] [mg/kg] | Chemotherapeut. Index ([1]; Tabelle 1) | also measured
O=C(Nc1ccc(Cl)cc1)c1cc(Cl)c(Cl)cc1NS(=O)(=O)c1ccc(Cl)cc1 [Verbindung 12, 4,5-Dichlor-2-[(4-chlor-phenylsulfonyl)-amino]-benzoesäure-(4-chlor-anilid)] |  |  | 5 | 10 | 
O=C(Nc1ccc(F)cc1)c1cc(Cl)cc(Cl)c1NS(=O)(=O)c1ccc(Cl)cc1 [Verbindung 14, 3,5-Dichlor-2-[(4-chlor-phenylsulfonyl)-amino]-benzoesäure-(4-fluor-anilid)] |  |  | 7.5 | 5 | 
CCCCCCCCCCCCNC(=O)c1cc(Cl)cc(Cl)c1NS(=O)(=O)c1ccc(Cl)cc1 [Verbindung 16] |  |  |  |  | Chemotherapeut. Index ([2]; p.o.): 10; minimal effective dose ([2]; po, p.o.): 5 mg/kg
CCCCCCCCCCCCNC(=O)c1cc(Cl)ccc1NS(=O)(=O)c1ccc(Cl)cc1 [Verbindung 17, 5-Chlor-2-[(4-chlor-phenylsulfonyl)-amino]-benzoesäure-dodecylamid] |  |  | 2.5 | 20 | 
CCCCCCCCCCCCN(C)C(=O)c1cc(Cl)ccc1NS(=O)(=O)c1ccc(Cl)cc1 [Verbindung 19, 5-Chlor-2-[(4-chlor-phenylsulfonyl)-amino]-benzoesäure-(N-methyl-dodecylamid)] |  |  | 7.5 | 5 | 
O=C(Nc1ccc(Br)cc1)c1cc(Cl)ccc1NS(=O)(=O)c1ccc(Br)cc1 [Verbindung 21] |  |  |  |  | Chemotherapeut. Index ([2]; s.c.): über 6; minimal effective dose ([2]; sc, s.c.): 5 mg/kg
O=C(Nc1ccc(Cl)cc1)c1cc(Cl)ccc1NS(=O)(=O)c1ccc(F)cc1 [Verbindung 22, 5-Chlor-2-[(4-fluor-phenylsulfonyl)-amino]-benzoesäure-(4-chloranilid)] |  |  |  |  | Chemotherapeut. Index ([2]; p.o.): 5; minimal effective dose ([2]; po, p.o.): 10 mg/kg
O=C(Nc1ccc(Cl)cc1)c1cc(Cl)ccc1NS(=O)(=O)c1ccc(Cl)cc1Cl [Verbindung 25, 5-Chlor-2-[(2,4-dichlor-phenylsulfonyl)-amino]-benzoesäure-(4-chloranilid)] |  |  | 7.5 | 6 | 
O=C(Nc1ccc(Cl)cc1)c1cc(Cl)ccc1NS(=O)(=O)c1ccc(Cl)c(Cl)c1 [Verbindung 26, 5-Chlor-2-[(3,4-dichlor-phenylsulfonyl)-amino]-benzoesäure-(4-chlor-anilid)] |  | über 25 | 1 | über 25 | Dosis (>90% Reduktion der Wurmbürde) [1, 3]: 1 mg/kg Körpergewicht
CCCCCCCCNC(=O)c1cc(Cl)ccc1NS(=O)(=O)c1ccc(Cl)c(Cl)c1 [Verbindung 27, 5-Chlor-2-[(3,4-dichlor-phenylsulfonyl)-amino]-benzoesäure-octylamid] |  |  | 7.5 | 8 | 
CCN(C(=O)c1cc(Cl)ccc1NS(=O)(=O)c1ccc(Cl)c(Cl)c1)c1ccc(Cl)cc1 [Verbindung 29] |  |  | 1.5 | über 25 | 
CN(c1ccc(Cl)cc1C(=O)Nc1ccc(Cl)cc1)S(=O)(=O)c1ccc(Cl)c(Cl)c1 [Verbindung 30, 5-Chlor-2-[(3,4-dichlor-phenylsulfonyl)-methylamino]-benzoesäure-(4-chlor-anilid)] |  |  | 5 | 10 | 
CCCCCCCCCCCCCCCCCCNC(=O)c1cc(Cl)ccc1NS(=O)(=O)c1ccc(Cl)c(Cl)c1 [Verbindung 32, 5-Chlor-2-[(3,4-dichlor-phenyl-sulfonyl)-amino]-benzoesäure-octa-decylamid] |  |  | 5 | 10 | 
CCCCCCCCCCCCN(C)C(=O)c1cc(Cl)ccc1NS(=O)(=O)c1ccc(Cl)c(Cl)c1 [Verbindung 33, 5-Chlor-2-[(3,4-dichlor-phenylsulfonyl)-amino]-benzoesäure-(N-methyl-dodecylamid)] |  |  |  |  | Chemotherapeut. Index ([2]; s.c.): über 6; minimal effective dose ([2]; sc, s.c.): 5 mg/kg
O=C(Nc1ccc(C(F)(F)F)cc1)c1cc(Cl)ccc1NS(=O)(=O)c1ccc(Cl)c(Cl)c1 [Verbindung 34, 5-Chlor-2-[(3,4-dichlor-phenylsulfonyl)-amino]-benzoesäure-(4-trifluormethyl-anilid)] |  |  | 2.5 | 20 | 
CCS(=O)(=O)c1ccc(NS(=O)(=O)c2ccc(Cl)c(Cl)c2)c(C(=O)Nc2ccc(Cl)cc2)c1 [Verbindung 40] |  |  | 5 | 10 | 
